Calls of active or inactive are those of the source. Rule as the data show it, for most assays here: actives have a measured EC50 and inactives only a lower limit.
Tests used:
[1] = molecular target: T1, Apoptotic protease-activating factor 1 (Homo sapiens, UniProt O14727); assay: SAR analysis of small molecule Activators of Apaf-1 in a Fluorescent assay.; format: functional; details: read-out: EC50_Mean
T1 sequence (O14727 whole entry): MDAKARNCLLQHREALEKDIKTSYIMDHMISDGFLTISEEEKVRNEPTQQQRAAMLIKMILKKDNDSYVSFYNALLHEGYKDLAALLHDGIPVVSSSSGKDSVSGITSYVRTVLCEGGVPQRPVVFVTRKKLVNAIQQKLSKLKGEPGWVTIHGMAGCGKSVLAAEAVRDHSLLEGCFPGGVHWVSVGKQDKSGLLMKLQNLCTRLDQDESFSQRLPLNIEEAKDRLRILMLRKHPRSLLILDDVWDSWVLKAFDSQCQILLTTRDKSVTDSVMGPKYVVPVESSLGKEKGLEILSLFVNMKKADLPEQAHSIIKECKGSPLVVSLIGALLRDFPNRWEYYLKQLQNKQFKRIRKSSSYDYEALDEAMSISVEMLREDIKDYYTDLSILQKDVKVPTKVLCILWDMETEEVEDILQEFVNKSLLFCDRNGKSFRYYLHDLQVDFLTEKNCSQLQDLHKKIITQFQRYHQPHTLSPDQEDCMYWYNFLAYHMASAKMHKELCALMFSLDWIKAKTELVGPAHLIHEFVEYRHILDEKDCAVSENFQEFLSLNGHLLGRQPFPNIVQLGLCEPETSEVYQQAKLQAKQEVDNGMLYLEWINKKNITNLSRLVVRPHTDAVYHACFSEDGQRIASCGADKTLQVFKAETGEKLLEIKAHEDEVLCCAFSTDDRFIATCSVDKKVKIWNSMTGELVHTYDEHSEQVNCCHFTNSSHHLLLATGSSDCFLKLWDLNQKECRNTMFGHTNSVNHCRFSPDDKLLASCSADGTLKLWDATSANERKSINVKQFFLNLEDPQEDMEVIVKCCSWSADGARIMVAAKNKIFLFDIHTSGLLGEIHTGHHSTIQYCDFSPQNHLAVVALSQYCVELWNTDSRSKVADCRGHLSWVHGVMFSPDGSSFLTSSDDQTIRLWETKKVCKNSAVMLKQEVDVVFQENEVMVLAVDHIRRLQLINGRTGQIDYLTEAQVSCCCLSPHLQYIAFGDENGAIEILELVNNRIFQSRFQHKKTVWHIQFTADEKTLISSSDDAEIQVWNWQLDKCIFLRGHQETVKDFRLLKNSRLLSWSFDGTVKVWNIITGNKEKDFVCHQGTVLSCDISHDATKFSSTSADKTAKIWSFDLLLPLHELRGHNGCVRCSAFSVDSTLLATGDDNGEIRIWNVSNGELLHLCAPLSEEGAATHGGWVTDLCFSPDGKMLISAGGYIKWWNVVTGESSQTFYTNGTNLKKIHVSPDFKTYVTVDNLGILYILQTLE

[2] = molecular target: T2, DNA dC->dU-editing enzyme APOBEC-3G (Homo sapiens, UniProt Q9HC16); assay: APOBEC3G deaminase inhibitors, SAR follow-up, biochemical, fluorescence, single-stranded DNA substrate (AID 602136); format: functional; details: read-out: IC50_Mean
[3] = molecular target: T3, DNA dC->dU-editing enzyme APOBEC-3A (Homo sapiens, UniProt P31941); assay: SAR analysis of small molecule inhibitors of APOBEC3A DNA Deaminase via a fluorescence-based single-stranded DNA deaminase assay.; format: functional; details: read-out: IC50_Mean
[4] = molecular target: Serine/threonine-protein kinase pim-1 (Homo sapiens, UniProt P11309); format: functional
[5] = molecular target: T4, Heat shock factor protein 1 (Mus musculus, UniProt P38532); assay: inhibition of MG132-induced HSE-luciferase signal, confirmation, cell-based, NIH3T3, luminescence, dose retest (AID 2382); format: functional;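 also: NIH3T3 fibroblasts with HSF1-driven luciferase reporter stressed by proteasome inhibitor MG132; luminescence from HSF1-driven luciferase expression after 8 hours of MG132 stress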
T4 sequence (P38532 whole entry): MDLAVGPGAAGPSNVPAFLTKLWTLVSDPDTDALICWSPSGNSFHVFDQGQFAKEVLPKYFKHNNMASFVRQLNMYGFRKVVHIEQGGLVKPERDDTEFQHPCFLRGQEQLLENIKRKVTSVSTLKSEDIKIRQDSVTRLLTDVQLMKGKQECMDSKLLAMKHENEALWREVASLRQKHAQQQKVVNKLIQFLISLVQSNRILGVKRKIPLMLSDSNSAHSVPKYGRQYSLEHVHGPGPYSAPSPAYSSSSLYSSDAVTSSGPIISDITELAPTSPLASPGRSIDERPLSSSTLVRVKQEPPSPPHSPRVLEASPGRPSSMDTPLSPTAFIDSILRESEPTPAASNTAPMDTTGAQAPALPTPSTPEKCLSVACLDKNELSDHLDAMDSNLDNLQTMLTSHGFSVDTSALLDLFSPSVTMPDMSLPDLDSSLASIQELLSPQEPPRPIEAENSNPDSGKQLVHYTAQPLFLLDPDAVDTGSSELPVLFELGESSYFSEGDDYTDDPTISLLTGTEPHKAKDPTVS

[6] = molecular target: Multidrug resistance protein CDR1 (Candida albicans, UniProt P43071); assay: CaCDR1 efflux pump inhibitors in yeast, dose response, S. cerevisiae AD1-8u, singleplex, Cherry Pick1 hits (AID 588606); format: functional
[7] = SAR analysis of small molecule activators of Apaf-1 using a LZ-Caspase-9/Caspase-3 Fluorescent Selectivity assay - Set 2.; format: functional; details: read-out: EC50_Mean
[8] = molecular target: T1, Apoptotic protease-activating factor 1; assay: SAR analysis of small molecule Activators of Apaf-1 in a Fluorescent assay - set 2.; format: functional; details: read-out: EC50_Mean
[9] = molecular target: T3, DNA dC->dU-editing enzyme APOBEC-3A; assay: SAR analysis of small molecule inhibitors of APOBEC3A DNA Deaminase via a fluorescence-based single-stranded DNA deaminase assay - Set 2.; format: functional; details: read-out: IC50_Mean
[10] = molecular target: T2, DNA dC->dU-editing enzyme APOBEC-3G; assay: SAR analysis of small molecule inhibitors of APOBEC3G DNA Deaminase via a fluorescence-based single-stranded DNA deaminase assay - Set 2.; format: functional; details: read-out: IC50_Mean
[11] = system: Streptococcus sp. 'group A'; assay: growth inhibition of control SK(-) GAS strain, dose response, counter-screen for streptokinase expression inhibitor project, luminescence, kanamycin, BacTiterGlo, confirmation (AID 1900); format: functional, organism-based
[12] = system: BJ; assay: cytotoxicity toward BJ-TERT fibroblasts, dose response, cell-based, RAS-independent, luminescence (AID 1933); format: functional; details: Homo sapiens
[13] = molecular target: T5, Streptokinase A (Streptococcus pyogenes serotype M1, UniProt P10520); assay: S. pyogenes streptokinase expression inhibitors, potency, dose response, plasminogen activation absorbance, OD405 (AID 1914); format: functional, Streptococcus pyogenes M1 GAS;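 also: secreted streptokinase activity via plasminogen activation per viability signal from cell pellet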
T5 sequence (P10520 whole entry): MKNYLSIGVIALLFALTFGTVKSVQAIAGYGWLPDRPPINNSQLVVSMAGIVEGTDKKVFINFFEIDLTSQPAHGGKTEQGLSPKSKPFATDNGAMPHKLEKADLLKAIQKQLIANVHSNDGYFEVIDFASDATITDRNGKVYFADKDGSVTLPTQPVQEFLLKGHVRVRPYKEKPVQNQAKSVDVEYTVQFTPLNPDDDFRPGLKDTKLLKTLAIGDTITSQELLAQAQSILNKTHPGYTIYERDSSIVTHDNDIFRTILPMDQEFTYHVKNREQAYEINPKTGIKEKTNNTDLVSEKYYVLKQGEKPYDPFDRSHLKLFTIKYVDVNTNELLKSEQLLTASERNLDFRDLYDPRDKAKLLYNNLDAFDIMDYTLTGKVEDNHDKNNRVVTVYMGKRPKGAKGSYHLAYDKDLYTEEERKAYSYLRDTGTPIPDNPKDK

[14] = system: BJ; assay: cells; format: functional, cell-based; details: Homo sapiens
[15] = system: BJ; assay: cytotoxicity toward BJ-TERT-LT-ST fibroblasts, dose response, cell-based, RAS-independent, luminescence (AID 1935); format: functional; details: Homo sapiens;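 also: BJ fibroblasts immortalized with TERT plus LT and ST oncogenes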
[16] = cytotoxicity toward DRD oncogenic fibroblasts, dose response, cell-based, non-viral oncogenic, luminescence (AID 1934); format: functional; details: Homo sapiens
[17] = system: Streptococcus; assay: Group A Streptococcus viability loss, dose response, counter-screen for streptokinase expression inhibitor project, luminescence, BacTiterGlo (AID 1915); format: functional, organism-based;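 also: potency for reduction of bacterial viability or growth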
[18] = cytotoxicity in HEK-293T cells, dose response, cytotoxicity control for BCR NF-kB inhibitor project, luminescence, B-cell screen hits (AID 489021); format: functional, cell-based;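 also: HEK-293T cells carrying an NF-kB luciferase reporter; cells exposed to compound for about 14 hours before viability readout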
[19] = molecular target: T6, Replicative DNA helicase DnaB (Mycobacterium tuberculosis, UniProt P9WMR3); assay: DnaB intein splicing inhibitors, dose response, biochemical, cell-free fluorescence (AID 449749); format: functional
T6 sequence (P9WMR3 whole entry): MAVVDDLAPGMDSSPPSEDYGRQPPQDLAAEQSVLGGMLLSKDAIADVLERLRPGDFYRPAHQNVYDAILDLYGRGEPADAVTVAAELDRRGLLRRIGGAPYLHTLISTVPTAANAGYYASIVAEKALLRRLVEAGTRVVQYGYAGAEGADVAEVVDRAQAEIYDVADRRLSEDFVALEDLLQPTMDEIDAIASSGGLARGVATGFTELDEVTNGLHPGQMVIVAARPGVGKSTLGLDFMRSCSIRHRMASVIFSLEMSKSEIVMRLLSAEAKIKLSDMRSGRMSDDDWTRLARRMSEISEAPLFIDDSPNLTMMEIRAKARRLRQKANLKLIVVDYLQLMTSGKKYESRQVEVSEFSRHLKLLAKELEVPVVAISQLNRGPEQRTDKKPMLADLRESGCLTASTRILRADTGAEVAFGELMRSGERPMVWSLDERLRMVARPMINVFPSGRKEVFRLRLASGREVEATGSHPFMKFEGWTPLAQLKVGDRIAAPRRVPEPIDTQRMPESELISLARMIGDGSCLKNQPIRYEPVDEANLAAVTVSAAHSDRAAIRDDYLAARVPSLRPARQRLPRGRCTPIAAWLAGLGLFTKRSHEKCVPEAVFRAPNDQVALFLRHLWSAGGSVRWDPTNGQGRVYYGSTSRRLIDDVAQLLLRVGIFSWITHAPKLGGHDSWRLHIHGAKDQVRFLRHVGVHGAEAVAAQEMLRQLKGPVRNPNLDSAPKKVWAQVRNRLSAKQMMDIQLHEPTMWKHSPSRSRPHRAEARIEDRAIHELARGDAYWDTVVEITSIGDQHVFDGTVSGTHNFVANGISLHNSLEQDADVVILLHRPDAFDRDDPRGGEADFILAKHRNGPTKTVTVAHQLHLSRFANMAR

[20] = system: BJ; assay: cytotoxicity toward Ras-transformed BJeLR fibroblasts, dose response, cell-based, alamar blue fluorescence, cherrypicked samples (AID 2631); format: functional; details: Homo sapiens;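 also: confirmatory dose-response assay in RAS-dependent BJ fibroblasts engineered with TERT, LT and ST, with cytotoxicity read by fluorescence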
[21] = molecular target: T7, Protein RecA (Mycobacterium tuberculosis, UniProt P9WHJ3); assay: Fluorescence Cell-Free Homogeneous Dose Retest to Identify Inhibitors of RecA-Intein Splicing Activity. [Related pubchem assays (depositor defined):AID2097, AID2223, AID489010, AID492950]; format: functional
T7 sequence (P9WHJ3 whole entry): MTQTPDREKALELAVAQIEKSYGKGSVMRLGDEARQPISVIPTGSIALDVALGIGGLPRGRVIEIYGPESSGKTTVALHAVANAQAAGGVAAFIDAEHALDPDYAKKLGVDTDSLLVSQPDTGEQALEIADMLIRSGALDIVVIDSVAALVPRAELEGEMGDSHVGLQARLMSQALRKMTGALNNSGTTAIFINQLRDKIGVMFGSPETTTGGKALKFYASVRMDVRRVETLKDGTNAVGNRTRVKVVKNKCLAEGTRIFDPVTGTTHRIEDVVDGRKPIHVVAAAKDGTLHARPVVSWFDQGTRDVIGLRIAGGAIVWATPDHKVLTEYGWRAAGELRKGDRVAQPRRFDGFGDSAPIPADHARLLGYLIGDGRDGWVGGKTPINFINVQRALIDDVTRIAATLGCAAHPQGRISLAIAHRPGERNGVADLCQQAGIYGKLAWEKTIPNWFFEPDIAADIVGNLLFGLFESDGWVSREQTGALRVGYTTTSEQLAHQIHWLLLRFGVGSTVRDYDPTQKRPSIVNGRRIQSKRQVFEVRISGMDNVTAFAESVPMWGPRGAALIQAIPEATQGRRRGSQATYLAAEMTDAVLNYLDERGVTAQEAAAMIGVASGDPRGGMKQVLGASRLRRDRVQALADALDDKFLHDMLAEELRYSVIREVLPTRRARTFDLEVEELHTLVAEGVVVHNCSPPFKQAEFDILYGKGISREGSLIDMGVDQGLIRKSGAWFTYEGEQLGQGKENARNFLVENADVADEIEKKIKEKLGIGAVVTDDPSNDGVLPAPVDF

[22] = system: INS1; assay: beta cell apoptosis inhibitors, cytokine rescue, dose response, luminescence, retest (AID 449756); format: functional, cell-based; details: Rattus norvegicus;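 also: cell death triggered by IL-1 beta plus TNF-alpha plus IFN-gamma mixture; protective hits raise ATP signal compared with cytokine alone wells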

T2 sequence (Q9HC16 whole entry): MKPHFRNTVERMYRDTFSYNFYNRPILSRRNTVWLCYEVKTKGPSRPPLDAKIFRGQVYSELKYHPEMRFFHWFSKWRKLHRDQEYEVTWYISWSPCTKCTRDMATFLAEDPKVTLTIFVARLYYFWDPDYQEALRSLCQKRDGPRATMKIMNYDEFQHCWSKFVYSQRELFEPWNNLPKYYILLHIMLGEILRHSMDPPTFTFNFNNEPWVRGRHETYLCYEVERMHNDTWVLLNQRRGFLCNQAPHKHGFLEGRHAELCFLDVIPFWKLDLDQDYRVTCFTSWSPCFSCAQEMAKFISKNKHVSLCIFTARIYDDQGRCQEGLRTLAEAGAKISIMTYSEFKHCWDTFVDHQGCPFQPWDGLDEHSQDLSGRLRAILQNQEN
T3 sequence (P31941 whole entry): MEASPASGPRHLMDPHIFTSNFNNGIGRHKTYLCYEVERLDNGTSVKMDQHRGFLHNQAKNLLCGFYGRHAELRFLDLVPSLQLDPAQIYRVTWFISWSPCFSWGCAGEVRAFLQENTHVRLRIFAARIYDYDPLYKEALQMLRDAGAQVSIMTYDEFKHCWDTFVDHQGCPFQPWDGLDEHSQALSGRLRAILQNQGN
Chain of Multidrug resistance protein CDR1 (P43071 whole entry, looked up): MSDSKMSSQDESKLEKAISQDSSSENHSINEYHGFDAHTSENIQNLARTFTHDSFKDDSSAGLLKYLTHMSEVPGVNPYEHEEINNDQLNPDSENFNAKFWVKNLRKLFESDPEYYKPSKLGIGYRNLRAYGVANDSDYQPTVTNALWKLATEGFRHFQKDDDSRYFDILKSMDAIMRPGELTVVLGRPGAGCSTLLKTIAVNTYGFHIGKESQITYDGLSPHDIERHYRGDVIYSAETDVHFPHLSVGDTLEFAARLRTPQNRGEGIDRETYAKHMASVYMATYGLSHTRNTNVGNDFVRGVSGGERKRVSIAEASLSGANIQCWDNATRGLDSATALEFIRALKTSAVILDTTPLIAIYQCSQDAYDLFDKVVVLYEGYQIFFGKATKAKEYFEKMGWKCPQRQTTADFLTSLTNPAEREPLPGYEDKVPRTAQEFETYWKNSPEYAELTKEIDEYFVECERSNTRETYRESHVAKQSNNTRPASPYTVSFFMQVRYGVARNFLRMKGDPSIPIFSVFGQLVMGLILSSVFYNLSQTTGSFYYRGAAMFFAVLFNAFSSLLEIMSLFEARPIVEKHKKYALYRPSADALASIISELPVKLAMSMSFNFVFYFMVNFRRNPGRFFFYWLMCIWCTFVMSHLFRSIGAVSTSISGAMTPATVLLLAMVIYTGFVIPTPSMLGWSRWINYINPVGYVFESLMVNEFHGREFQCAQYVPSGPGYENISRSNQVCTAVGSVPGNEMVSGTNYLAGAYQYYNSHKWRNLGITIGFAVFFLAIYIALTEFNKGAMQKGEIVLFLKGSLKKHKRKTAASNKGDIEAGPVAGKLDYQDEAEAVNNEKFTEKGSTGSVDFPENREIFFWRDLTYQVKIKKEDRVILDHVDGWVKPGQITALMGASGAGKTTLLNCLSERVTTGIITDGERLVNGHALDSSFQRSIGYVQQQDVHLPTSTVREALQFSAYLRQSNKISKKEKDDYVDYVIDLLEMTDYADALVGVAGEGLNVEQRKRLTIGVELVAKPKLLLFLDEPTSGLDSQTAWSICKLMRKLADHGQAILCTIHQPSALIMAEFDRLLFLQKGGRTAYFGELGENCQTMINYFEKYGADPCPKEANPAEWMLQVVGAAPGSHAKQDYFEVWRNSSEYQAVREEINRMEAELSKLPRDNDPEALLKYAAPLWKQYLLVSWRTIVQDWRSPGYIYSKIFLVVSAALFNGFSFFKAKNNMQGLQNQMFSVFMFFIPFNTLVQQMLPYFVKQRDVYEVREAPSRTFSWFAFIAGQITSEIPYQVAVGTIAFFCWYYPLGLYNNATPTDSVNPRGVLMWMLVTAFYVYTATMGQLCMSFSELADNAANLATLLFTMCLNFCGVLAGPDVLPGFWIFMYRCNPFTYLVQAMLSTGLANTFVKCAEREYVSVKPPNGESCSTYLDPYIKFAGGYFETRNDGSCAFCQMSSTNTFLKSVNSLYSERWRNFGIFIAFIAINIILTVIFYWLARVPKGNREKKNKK
Chain of Serine/threonine-protein kinase pim-1 (P11309 whole entry): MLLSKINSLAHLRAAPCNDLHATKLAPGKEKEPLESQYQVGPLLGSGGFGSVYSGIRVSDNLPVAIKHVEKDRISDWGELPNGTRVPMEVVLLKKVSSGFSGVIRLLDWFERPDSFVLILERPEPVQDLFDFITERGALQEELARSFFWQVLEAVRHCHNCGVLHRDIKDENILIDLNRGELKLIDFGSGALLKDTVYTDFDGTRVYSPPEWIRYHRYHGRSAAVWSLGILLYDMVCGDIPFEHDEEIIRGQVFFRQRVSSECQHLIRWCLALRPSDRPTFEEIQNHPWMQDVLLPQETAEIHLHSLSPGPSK

Compound: COc1ccc(C)cc1NC(=O)CCS(=O)(=O)c1ccc2c(c1)CC(C)N2C(=O)C1CC1 (stereo not given)
- EC50 [1]: > 100 µM (inactive)

Compound: Cc1cc(Cl)cc2c1N[C@H](c1ccncc1)C1CC=CC21 (stereo not given in full)
- IC50 [2]: > 99 µM (inactive)
- IC50 [3]: > 99 µM (inactive)

Compound: Cc1ccc2c(Nc3cc(OCc4ccccc4Br)ccc3Sc3ccc(O)cc3)ncnc2n1
- Ki [4]: 5.01 µM (active)

Compound: O=C1C(Cc2ccccc2)Nc2ncnc(N3CCN(c4ccccc4)CC3)c2N1Cc1ccccc1 (stereo not given)
- EC50 [5]: > 195 µM (not active)
- EC50 [6]: 14.7 µM (active)

Compound: O=C(NC(=S)Nc1ccc2[nH]c(=O)[nH]c2c1)c1cncc(Br)c1
- EC50 [6]: 2.09 µM (active)

Compound: CC(CN1CCCCC1)C(=O)O (stereo not given)
- EC50 [7]: > 100 µM (inactive)
- EC50 [8]: > 100 µM (inactive)

Compound: O=C(O)C1CC(c2cccc(Br)c2)=NO1 (stereo not given)
- EC50 [7]: > 100 µM (inactive)
- EC50 [8]: > 100 µM (inactive)

Compound: Cc1ccc(-c2csc3nnc(SCC(N)=O)n23)cc1
- IC50 [9]: > 99 µM (inactive)
- IC50 [10]: > 99 µM (inactive)

Compound: CC1CCc2c(sc3nc(C(C)(C)C)nc(N4CCN(C(=O)CCl)CC4)c23)C1 (stereo not given)
- EC50 [11]: 2.96 µM (active)
- EC50 [12]: 2.02 µM (active)
- EC50 [13]: 1.79 µM (active)
- EC50 [14]: 5.41 µM (inconclusive)
- EC50 [15]: 4.69 µM (inconclusive)
- EC50 [16]: 5.42 µM (inconclusive)
- EC50 [17]: 14.1 µM (active)
- IC50 [18]: > 80 µM (inactive)
- AC50 [19]: 2.45 µM (active)
- EC50 [20]: 588 nM (active)
- EC50 [21]: 481 nM (active)
- AC50 [22]: 5.84 µM (active)

Source: ChEMBL document CHEMBL1201862, “PubChem BioAssay data set” (2004)
